# How the values were obtained:
# [1] = biological target: T1, SIRT1 (Homo sapiens, UniProt Q96EB6); experiment: Trp mass spectrometry assay of SIRT1 activity; assay type: biochemical; settings: for Emax: read-out: Trp % Fold Act
# T1 sequence (Q96EB6 1-747): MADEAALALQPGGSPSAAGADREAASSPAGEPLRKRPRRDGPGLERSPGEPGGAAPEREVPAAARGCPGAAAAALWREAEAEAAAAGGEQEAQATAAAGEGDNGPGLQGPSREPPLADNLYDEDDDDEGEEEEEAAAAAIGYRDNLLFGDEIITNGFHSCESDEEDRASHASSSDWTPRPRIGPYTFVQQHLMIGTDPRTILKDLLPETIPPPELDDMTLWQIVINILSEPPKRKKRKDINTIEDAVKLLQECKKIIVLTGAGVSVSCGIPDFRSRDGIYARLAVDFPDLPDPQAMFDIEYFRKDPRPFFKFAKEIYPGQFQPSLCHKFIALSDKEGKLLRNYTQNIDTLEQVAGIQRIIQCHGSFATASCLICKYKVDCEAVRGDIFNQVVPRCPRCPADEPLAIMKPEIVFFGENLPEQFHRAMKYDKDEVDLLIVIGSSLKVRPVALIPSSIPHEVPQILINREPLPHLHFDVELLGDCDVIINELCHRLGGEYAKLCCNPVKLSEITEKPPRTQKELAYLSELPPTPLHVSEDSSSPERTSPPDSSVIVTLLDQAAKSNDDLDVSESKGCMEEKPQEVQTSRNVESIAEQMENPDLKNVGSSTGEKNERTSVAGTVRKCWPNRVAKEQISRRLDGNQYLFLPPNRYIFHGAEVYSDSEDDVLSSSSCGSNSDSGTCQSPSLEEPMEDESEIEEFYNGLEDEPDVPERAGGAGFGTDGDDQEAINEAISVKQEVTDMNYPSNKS
# Summary of the method: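 His-tagged SIRT1 expressed in E. coli BL21(DE3), 10 nM, incubated 25 min at 25° C. with 0.5 μM Ac-RHKK(Ac)W-NH2 peptide and 120 μM βNAD+ in 50 mM HEPES pH 7.5, […], 1 mM DTT, 0.05% BSA; formic acid stop. OAADPR or deacetylated peptide measured by mass spectrometry; EC1.5 and percent maximum activation versus DMSO control.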
# [2] = biological target: T1, SIRT1; experiment: TAMRA based mass spectrometry assay of SIRT1 activity; assay type: biochemical; settings: for Emax: read-out: TAMRA % Fold Act
# Summary of the method: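 Recombinant N-terminal His-tagged human SIRT1 (10 nM, E. coli) incubated 25 min at 25 °C with 0.5 μM 5TMR-labelled p53-derived acetyl-peptide and 120 μM βNAD+ in Tris-acetate pH 8 buffer with DTT and 0.05% BSA, compound at varying concentrations. Stopped with formic acid; deacetylated peptide or OAADPR measured by mass spectrometry relative to DMSO controls.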
# [3] = Trp peptide substrate, concentration giving 150% activation of SIRT1
# [4] = Trp peptide substrate, percent maximum fold activation
# [5] = TAMRA peptide substrate, concentration giving 150% activation of SIRT1
# [6] = TAMRA peptide substrate, percent maximum fold activation
# [7] = Trp assay, concentration giving 150% activation of SIRT1
# [8] = Trp assay, percent maximum fold activation
# [9] = TAMRA assay, concentration giving 150% activation of SIRT1
# [10] = TAMRA assay, percent maximum fold activation
# [11] = concentration of test compound giving 150% activation of SIRT1, Trp peptide substrate
# [12] = percent maximum fold activation of SIRT1, Trp peptide substrate
# [13] = concentration of test compound giving 150% activation of SIRT1, TAMRA peptide substrate
# [14] = percent maximum fold activation of SIRT1, TAMRA peptide substrate
SMILES,"Trp EC1.5 (μM) [1, 7]","Emax [1, 8] [%]","TAMRA EC1.5 (μM) [2, 9]","Emax [2, 10] [%]",other results
Cc1ccnc(NC(=O)c2cnc3ccc(-c4ccccc4OC(F)(F)F)nn23)n1 [Compound 401],–,–,–,–,"Trp EC1.5 [1, 3]: A (EC1.5<1 μM); Emax [1, 4]: ≥ 350%; TAMRA EC1.5 [2, 5]: A (EC1.5<1 μM); Emax [2, 6]: ≥ 350%"
CCNc1cccc(NC(=O)c2cnc3ccc(-c4ccccc4Cl)nn23)n1 [Compound 326],A (EC1.5<1 μM),< 350,A (EC1.5<1 μM),≥ 350,–
Cc1cnc(NC(=O)c2c(C)nc3ccc(-c4ccccc4OC[C@H](O)CO)nn23)s1 [Compound 829],A (EC1.5<1 μM),< 350,A (EC1.5<1 μM),≥ 350,–
O=C(Nc1cccc(CN2CCOCC2)n1)c1cnc2ccc(-c3ccc(F)c(F)c3)nn12 [Compound 43],–,–,–,–,"Trp EC1.5 (μM) [1, 11]: C (EC1.5>25 μM); Emax [1, 12]: < 350%; TAMRA EC1.5 (μM) [2, 13]: B (EC1.5 1-25 μM); Emax [2, 14]: < 350%"
Cc1cnc(C(=O)Nc2cnc3c(C)cc(-c4ccccc4C(F)(F)F)nn23)s1 [Compound 424],–,–,–,–,"Trp EC1.5 [1, 3]: B (EC1.5 1-25 μM); Emax [1, 4]: < 350%; TAMRA EC1.5 [2, 5]: A (EC1.5<1 μM); Emax [2, 6]: ≥ 350%"
Cc1cncc(NC(=O)c2c(C)nn3ccc(-c4ccccc4Br)nc23)c1 [Compound 827],A (EC1.5<1 μM),< 350,A (EC1.5<1 μM),≥ 350,–
O=C(Nc1nc(CN2CCOCC2)cs1)c1cnc2ccc(-c3cccc(F)c3)nn12 [Compound 29],–,–,–,–,"Trp EC1.5 (μM) [1, 11]: B (EC1.5 1-25 μM); Emax [1, 12]: < 350%; TAMRA EC1.5 (μM) [2, 13]: B (EC1.5 1-25 μM); Emax [2, 14]: < 350%"
Cc1cc(NC(=O)c2cnc3ccc(-c4ccccc4C(F)(F)F)nn23)cc(OC[C@@H](O)CO)n1 [Compound 558],–,–,–,–,"Trp EC1.5 [1, 3]: A (EC1.5<1 μM); Emax [1, 4]: ≥ 350%; TAMRA EC1.5 [2, 5]: A (EC1.5<1 μM); Emax [2, 6]: ≥ 350%"
O=C(Nc1cnc2ccc(-c3ccccc3OC(F)(F)F)nn12)c1ncccn1 [Compound 315],B (EC1.5 1-25 μM),≥ 350,A (EC1.5<1 μM),≥ 350,–
CCOc1ccc(NC(=O)c2cnn3ccc(-c4ccccc4OC(F)(F)F)nc23)nn1 [Compound 636],B (EC1.5 1-25 μM),< 350,A (EC1.5<1 μM),≥ 350,–
Cc1c(-c2ccccc2Cl)nn2c(NC(=O)c3cccc(N4CCCC4)n3)cnc2c1C [Compound 386],B (EC1.5 1-25 μM),< 350,A (EC1.5<1 μM),≥ 350,–
CC(C)c1nccc(C(=O)Nc2cnn3ccc(-c4ccccc4OC(F)(F)F)nc23)n1 [Compound 728],C (EC1.5>25 μM),< 350,A (EC1.5<1 μM),≥ 350,–
O=C(Nc1cnc2ccc(-c3ccccc3C(F)(F)F)nn12)c1cncc(OC[C@@H](O)CO)n1 [Compound 645],A (EC1.5<1 μM),≥ 350,A (EC1.5<1 μM),≥ 350,–
Cc1cc(C)nc(C(=O)Nc2cnc3ccc(-c4ccccc4C(F)(F)F)nn23)n1 [Compound 221],B (EC1.5 1-25 μM),< 350,A (EC1.5<1 μM),≥ 350,–
Cc1nccc(C(=O)Nc2cnc3ccc(-c4ccccc4C(F)(F)F)nn23)n1 [Compound 389],B (EC1.5 1-25 μM),< 350,A (EC1.5<1 μM),≥ 350,–
Cn1cnc(C(=O)Nc2cnc3ccc(-c4ccccc4C(F)(F)F)nn23)c1 [Compound 92],–,–,–,–,"Trp EC1.5 (μM) [1, 11]: C (EC1.5>25 μM); Emax [1, 12]: < 350%; TAMRA EC1.5 (μM) [2, 13]: B (EC1.5 1-25 μM); Emax [2, 14]: ≥ 350%"
"O=C(Nc1cccnc1)c1ncn2ccc(-c3ccccc3C(F)(F)F)nc12 [Compound 451, N-(pyridin-3-yl)-2-(2-(trifluoromethyl)phenyl)imidazo[1,5-a]pyrimidine-8-carboxamide]",–,–,–,–,"Trp EC1.5 [1, 3]: B (EC1.5 1-25 μM); Emax [1, 4]: ≥ 350%; TAMRA EC1.5 [2, 5]: B (EC1.5 1-25 μM); Emax [2, 6]: ≥ 350%"
CCOc1cc(NC(=O)c2c(C)nn3ccc(-c4ccccc4C(F)(F)F)nc23)ccn1 [Compound 707],A (EC1.5<1 μM),≥ 350,A (EC1.5<1 μM),≥ 350,–
Cc1nc(C(=O)Nc2cnc3ccc(-c4ccccc4C(F)(F)F)nn23)cs1 [Compound 273],B (EC1.5 1-25 μM),≥ 350,A (EC1.5<1 μM),≥ 350,–
"Cc1cc(-c2ccccc2C(F)(F)F)nn2c(NC(=O)c3ccccn3)cnc12 [Compound 407, N-(8-methyl-6-(2-(trifluoromethyl)phenyl)imidazo[1,2-b]pyridazin-3-yl)picolinamide]",–,–,–,–,"Trp EC1.5 [1, 3]: B (EC1.5 1-25 μM); Emax [1, 4]: ≥ 350%; TAMRA EC1.5 [2, 5]: A (EC1.5<1 μM); Emax [2, 6]: ≥ 350%"
Cc1nn2ccc(-c3ccccc3C(F)(F)F)nc2c1C(=O)Nc1ncc(F)cc1F [Compound 788],B (EC1.5 1-25 μM),≥ 350,B (EC1.5 1-25 μM),≥ 350,–
O=C(Nc1cccnc1)c1cnc2ccc(-c3cccc(Cl)c3F)nn12 [Compound 143],–,–,–,–,"Trp EC1.5 (μM) [1, 11]: A (EC1.5<1 μM); Emax [1, 12]: < 350%; TAMRA EC1.5 (μM) [2, 13]: C (EC1.5>25 μM); Emax [2, 14]: < 350%"
CC(C)c1nccc(C(=O)Nc2cnn3ccc(-c4ccccc4C(F)(F)F)nc23)n1 [Compound 796],B (EC1.5 1-25 μM),< 350,A (EC1.5<1 μM),≥ 350,–
O=C(Nc1cnn2ccc(-c3ccccc3C(F)(F)F)nc12)c1ccccn1 [Compound 249],B (EC1.5 1-25 μM),< 350,A (EC1.5<1 μM),≥ 350,–
Cc1nc2c(C)cc(-c3ccccc3C(F)(F)F)nn2c1C(=O)Nc1ccncn1 [Compound 460],–,–,–,–,"Trp EC1.5 [1, 3]: A (EC1.5<1 μM); Emax [1, 4]: ≥ 350%; TAMRA EC1.5 [2, 5]: A (EC1.5<1 μM); Emax [2, 6]: ≥ 350%"
